Data on three compounds can be found in US20130023563A1, “AMIDINOANILINE DERIVATIVE” (AJINOMOTO CO., INC., priority 2010, published 2013).

Series [1] concerns the target activated factor IIa (thrombin) (Homo sapiens, UniProt P00734). As to the kind of experiment: Measurement of inhibitory activity against activated factor II (chromogenic substrate S-2238). In kind it is biochemical. The following applies: 0.125 U/ml thrombin, 0.1 mM S-2238, absorbance 405 nm; read-out: FIIa (pIC50) (converted). The method, then:
Experimental Example 2 Measurement of Inhibitory Activity Against Activated Factor II (FIIa, Thrombin)
Using a 96-well plate (#3396, Costar), 100 mM Tris-HCl buffer (130 μL) containing 0.02% Tween 20, 0.1% PEG6000 and 0.2M NaCl was admixed with 0.125 U/ml activated factor IIa (thrombin) (10 μL) and a test compound (10 μL) for 10 min and a color developing substrate 0.1 mM S-2238 (50 μL) was added. Using a microplate reader Benchmark Plus (BIO-RAD), the reaction rate was measured from the time course changes at absorbance 405 nm. Using the reaction rate of the control as 100%, the negative logarithmic value of the concentration that can suppress the reaction rate of the control by 50% was taken as the pIC50 value.

Series [2] is described as follows: Evaluation of stability in plasma. The following applies: human plasma, 37° C., read-out: T½. The format is in vitro ADME. As to the method:
Experimental Example 4 Evaluation of stability in plasma
To human plasma (495 μL) was added 5 μL from a solution of the test compound prepared to 200 μM (final drug solution concentration 2 μM), and the mixture was incubated at 37° C. At 0 min, 1 min, 2 min, 5 min and 10 min from the addition of the drug solution, 50 μL each was sampled, 0.1 mg/ml DDVP-containing acetonitrile (350 μL) was added, and the reaction was discontinued by blending them. After discontinuation of the reaction, a deproteination treatment was performed by a centrifugation operation at 15000 rpm for 5 min. The centrifugation supernatant (350 μL) was dried to solidness, concentrated, dissolved in aqueous solution (100 μL) of 20% acetonitrile and 0.1% formic acid and the mixture was subjected to the measurement by LC/MS/MS.
The half-life (T1/2) was calculated using initial 3rd-4th time points.

Series [3] addresses FXa (Homo sapiens, UniProt P00742). As to the kind of experiment: Measurement of inhibitory activity against activated factor X (chromogenic substrate S-2222). In kind it is biochemical. The following applies: 0.015 U/ml FXa, 0.2 mM S-2222, absorbance 405 nm; read-out: FXa (pIC50) (converted). As to the method: Experimental Example 1 Measurement of Inhibitory Activity Against Activated Factor X Activity
Using a 96-well plate (#3396, Costar), 100 mM Tris-HC1 buffer (130 μL) containing 0.02% Tween 20, 0.1% PEG6000 and 0.2M NaCl was admixed with 0.015 U/ml FXa (10 μL) and a test compound (10 μL) for 10 min and a color developing substrate 0.2 mM S-2222 (50 μL) was added. Using a microplate reader Benchmark Plus (BIO-RAD), the reaction rate was measured from the time course changes at absorbance 405 nm. Using the reaction rate of the control as 100%, the negative logarithmic value of the concentration that can suppress the reaction rate of the control by 50% was taken as the pIC50 value.

For series [4], the system named is human plasma. As to the kind of experiment: Anti-blood coagulant activity, aPTT method, Sysmex CA-1500 (Experimental Example 3-1). The format is biochemical. The following applies: negative logarithmic value of the concentration that prolongs aPTT of the control 2 times. As to the method:
Experimental Example 3-1 Measurement of Anti-Blood Coagulant Activity
Examples 1, 8, 9, 11, 13, 16-19 and 22 were measured according to the following method.
An aPTT measurement method using totally automatic blood coagulation time measuring apparatus Sysmex CA-1500 was used. A 10 mg/ml DDVP solution (DDVP standard product, Wako) (4 μL) and a test compound solution (20 μL) were placed in a sample tube (MS-18, Japan Medical Science), human plasma (standard human plasma for blood coagulation test, GCH-100A, Sysmex) (180 μL) was added and the mixture was used as a test sample. The test sample (50 μL) was incubated at 37° C. for 1 min, data fi APTT (rabbit brain-derived cephalin, DADE Behiring) (50 μL) was added, and the mixture was further incubated at 37° C. for 2 min. To the sample solution was added 0.02M calcium chloride (50 μL), and the time until plasma coagulation was automatically measured.
As the anti-blood coagulant activity, the negative logarithmic value of the concentration that prolongs aPTT of the control 2 times is shown as paPTT2.

A short description of series [5]: Evaluation of stability in liver S9 fraction. The format is in vitro ADME. The following applies: human liver S9 fraction 2 mg/mL, 2 μM, 37° C. As to the method:
Experimental Example 5 Evaluation of Stability in Liver S9 Fraction
Metabolism reaction mixed solution (0.1 mM EDTA-100 mM potassium phosphate buffer (pH 7.4), 2 mg/mL human liver S9 fraction, 0.5 mM oxidized nicotinamide adenine dinucleotide phosphate, 5 mM glucose-6-phosphoric acid, 1 unit/mL glucose-6-phosphate dehydrogenase) was pre-warmed at 37° C. for 5 min. After pre-warming, DMSO solution of the substrate was added such that the concentration of the final drug solution was 2 μM, and the metabolism reaction was started at 37° C. A given amount was sampled at 0 min, 5 min, 10 min and 30 min from the start of the reaction, 0.1 mg/mL dichlorvos-containing acetonitrile was added, and blended to discontinue the reaction. After discontinuation of the reaction, a deproteination treatment was performed by a centrifugation operation at 15000 rpm for 5 min. To the centrifugation supernatant was added 0.3% aqueous formic acid solution, admixed and the mixture was subjected to the measurement by LC/MS/MS. Then, as the residual ratio (%) at 30 min later, the ratio relative to the concentration at 0 min was calculated.

Where a name gives a salt, the structure may show the parent alone. Some results are limits rather than exact numbers.

FXa, sequence (P00742 235-488 limits assumed): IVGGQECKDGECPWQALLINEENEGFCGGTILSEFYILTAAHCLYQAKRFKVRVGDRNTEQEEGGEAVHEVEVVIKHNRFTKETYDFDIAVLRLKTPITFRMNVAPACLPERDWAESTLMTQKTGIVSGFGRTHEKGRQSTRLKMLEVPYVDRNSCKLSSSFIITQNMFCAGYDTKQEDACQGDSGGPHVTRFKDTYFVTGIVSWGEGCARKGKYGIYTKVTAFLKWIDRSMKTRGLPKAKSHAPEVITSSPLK
FXa, sequence (P00742 41-179 partner limits assumed): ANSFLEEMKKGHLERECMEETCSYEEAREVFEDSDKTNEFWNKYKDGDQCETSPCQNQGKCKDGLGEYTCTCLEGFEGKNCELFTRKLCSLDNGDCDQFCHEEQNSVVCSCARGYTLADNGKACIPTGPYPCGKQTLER

Consider `N=C(N)c1cccc(N2CCC[C@H]2COC(=O)c2ccc(C(=N)N3CCCC3)cc2)c1` [compound of Ex. 22, ((2S)-1-{3-[amino(imino)methyl]phenyl}pyrrolidin-2-yl)methyl 4-[imino(pyrrolidin-1-yl)methyl]benzoate 2 trifluoroacetate], for which the results for the IC50 in series [1] and in series [3] were over 100000 nM and 398 nM, respectively. Further, the half-life at 2 μM in series [2] was under 1 min. For the same compound, the paPTT2 in series [4] is 6.03. Further, in series [5], the “residual ratio (%) of liver S9 fraction 30 min later” value is recorded as 80%.

As for `N=C(N)c1cccc(N2C[C@H](OCc3ccccc3)C[C@H]2C(=O)Oc2ccc(C(=N)N3CCCC3)cc2)c1` [compound of Ex. 13, 4-[imino(pyrrolidin-1-yl)methyl]phenyl (4R)-1-{3-[amino(imino)methyl]phenyl}-4-(benzyloxy)-L-prolinate 2 trifluoroacetate], the IC50 was 288 nM in series [1] and 339 nM in series [3]. For the same compound, the half-life at 2 μM in series [2] came out at 8.2 min. Also, the paPTT2 in series [4] was 5.59. Besides, in series [5], the “residual ratio (%) of liver S9 fraction 30 min later” value amounted to 86%.

For `CC(=N)N1CCC(Oc2ccc(OC(=O)[C@H]3CCCN3c3cccc(C(=N)N)c3)cc2)CC1` [compound of Ex. 11, 4-[(1-ethanimidoylpiperidin-4-yl)oxy]phenyl 1-{3-[amino(imino)methyl]phenyl}-D-prolinate 2 trifluoroacetate], the IC50 is 347 nM in series [1] and 105 nM in series [3]. Moreover, the half-life at 2 μM in series [2] is under 1 min. The paPTT2 in series [4] was 6.25. In addition, the “residual ratio (%) of liver S9 fraction 30 min later” value in series [5] was determined as 85%.
